# According to patent US10611764B2 (Wisconsin Alumni Research Foundation, priority 2017, dated 2020):
# Residue numbers refer to the chain shown, from its start.
# Experiments:
# [1] = test system: Salmonella typhimurium tester strains (TA97a, TA98, TA100, and TA1535) and Escherichia coli strain (WP2 uvrA pKM101); test: Ames screening; settings: with and without S9, 7.8-250 ng/well
# Protocol: The Ames screening detects both frameshift and base-pair substitution mutations using 4 Salmonella typhimurium tester strains (TA97a, TA98, TA100, and TA1535) and 1 Escherichia coli strain (WP2 uvrA pKM101). Strains TA97a and TA98 detect frameshift mutations, and TA100, TA1535, and WP2 uvrA pKM101 detect base-pair substitution mutations. This scaled-down Ames test uses minimal compound, is conducted with and without metabolic activation (S9 fraction), and uses multiwell plates. The Ames screen for TEACOP 270 was tested in duplicate with strains TA97a, TA98, TA100, TA1535, and WP2 uvrA pKM101 in the presence and absence of a metabolic activation system (Aroclor™ 1254 induced rat liver S9 microsomal fraction) at 7.8, 15.5, 31, 62.5, 125, and 250 ng/well. Positive control compounds were used at 4 different concentrations to ensure the assay system was sensitive to known mutagenic compounds. DMSO was used as the vehicle control.
# [2] = molecular target: T1, mouse AHR (mAHR B1-allele) (Mus musculus, UniProt P30561, M589L/N533S/P471L); test: cell-based
# T1 sequence (P30561 10-805 P471L/N533S/M589L): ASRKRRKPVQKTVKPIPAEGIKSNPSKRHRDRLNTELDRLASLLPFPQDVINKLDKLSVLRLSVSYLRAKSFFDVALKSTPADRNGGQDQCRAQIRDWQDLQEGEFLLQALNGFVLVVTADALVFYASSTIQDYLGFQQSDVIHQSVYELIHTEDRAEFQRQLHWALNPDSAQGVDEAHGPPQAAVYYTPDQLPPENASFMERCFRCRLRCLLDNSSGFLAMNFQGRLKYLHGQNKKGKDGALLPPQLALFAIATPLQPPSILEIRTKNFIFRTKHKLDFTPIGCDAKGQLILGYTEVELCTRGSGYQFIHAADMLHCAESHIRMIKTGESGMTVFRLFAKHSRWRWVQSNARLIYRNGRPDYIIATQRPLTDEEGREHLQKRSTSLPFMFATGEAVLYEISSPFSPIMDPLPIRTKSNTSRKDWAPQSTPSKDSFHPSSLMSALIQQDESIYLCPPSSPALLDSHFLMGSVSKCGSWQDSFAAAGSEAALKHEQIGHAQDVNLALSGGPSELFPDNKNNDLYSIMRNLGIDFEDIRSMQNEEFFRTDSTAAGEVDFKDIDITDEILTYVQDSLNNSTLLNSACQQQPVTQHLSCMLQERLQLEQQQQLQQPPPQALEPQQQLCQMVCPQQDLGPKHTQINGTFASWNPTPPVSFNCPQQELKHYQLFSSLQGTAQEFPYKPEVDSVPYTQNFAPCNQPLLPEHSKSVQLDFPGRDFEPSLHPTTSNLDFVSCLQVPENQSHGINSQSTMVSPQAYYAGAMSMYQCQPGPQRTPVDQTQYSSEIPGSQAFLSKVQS
# Protocol: The wild type and mutant mAHR were cloned into the XhoI/SalI cloning sites of pTARGET (Promega, Madison, Wis.) using routine PCR and molecular cloning procedures using the pSport-mAHR plasmid (PL65) as template (Dolwick, Swanson et al. 1993). For recombinant expression of mAHR, COS-1 cells were cultured in 6 cm dishes and transfected with 2 μg of wild-type or mutant mAHR expression vector. Twenty-four hours after transfection, cells were collected, and the whole cell extracts were prepared by celLytic M reagent (Sigma-Aldrich, St Louis, Mo.). 100 μg of whole cell extract was analyzed by western blot using antibodies that specifically recognize the mAHR (bear-2) and β-actin (Sigma).
# COS-1 cells were cultured in 96-well plates and transiently transfected with pTarget vector containing the expression cassette of wild-type or mutant mAHR, or empty vector (3 ng), together with pGudLu6.1 DREs-driven luciferase reporter vector (14 ng) (Han, Nagy et al. 2004) and TK-renilla luciferase vector (3 ng) (Invitrogen, Carlsbad Calif.). […] The expressed luciferase activity was measured by ENSPIRE plate reader (Perkin Elmer, USA). Data analysis and simulation of dose response curves were performed using GraphPad Prism 5 (GraphPad software Inc., La Jolla, Calif.). The experiments were performed in triplicate and repeated at least three times. Representative results of one repeat are shown as mean±SEM.
# mAHR H285A mutant = test: Luciferase reporter gene assay, mutant mAHR H285A in COS-1 cells; type: cell-based, mouse; settings: relative to WT mAHR
# mAHR Q377A mutant = molecular target: T2, mAHR Q377A mutant (Mus musculus, UniProt P30561, Q377A); test: Luciferase reporter gene assay, mutant mAHR Q377A in COS-1 cells; type: cell-based; settings: relative to WT mAHR
# T2 construct: expressed in transfected cells; host or cells: COS-1
# T2 sequence (P30561 10-805 Q377A limits assumed): T1 sequence (P30561 10-805 P471L/N533S/M589L) with Q368A, L462P, S524N, L580M
# [3] = Solubility in commonly used (NMR) solvents; type: physicochemical
compound,measurement,setting,value
C1=Cc2c3ccccc3nc3nc4ccccc4c(c23)N1 [Compound 4],mutagenicity (Ames test),[1],No mutagenicity is detected
same,EC50,[2],0.378 nM
same,fold lower measured activity than Compound 4,"[2]; purified sample largely contaminated by lipids, FIG. 5c",more than 10 fold
same,effect of H285A mutation on AHR induction activity,mAHR H285A mutant,drastically affected
same,effect of Q377A mutation on AHR induction activity,mAHR Q377A mutant,barely affected
same,solubility in CDCl3,[3]; TFA salt,good solubility
same,solubility,[3]; free base form,poor solubility
same,"solubility in commonly used solvents (CDCl3, CD3OD, DMSO-d6, etc)",[3]; isolated material,very poor solubility
